Test system: Activated T cells from human donor
Experiment: Cell surface CAR expression of CA2 regulated CAR constructs (CD19-Fc staining)
Format: cell-based
Protocol: CA2 DD described herein were operably linked to CARs to generate tunable CAR constructs. Activated T cells from human donor were transduced with 10 μL of lentivirus for indicated constructs. […] Cell surface CAR expression was detected the following day by staining the cells with 10 ug/mL CD19-Fc followed by an anti-human-BV421 conjugated secondary antibody. Histograms were plotted from a live cell gate. Similar experiments were also performed at day 8 and the cells were harvested at day 9. The data are shown in Table 20 as percentage CAR positive cells. The stabilization ratio was also calculated and is included in Table 20 as SR.
Activated T cells from human donor were transduced with 10 μL of lentivirus for indicated constructs. […] Cell surface CAR expression was detected the following day by staining the cells with 10 ug/mL CD19-Fc followed by an anti-human-BV421 conjugated secondary antibody. The percent of ligand induced CAR+ cells are plotted from a live cell gate relative to vehicle treated negative control cells.

## Cc1onc(-c2ccccc2)c1-c1ccc(S(N)(=O)=O)cc1 [Valdecoxib]
T cells day 8, Valdecoxib starting at 10 μM diluting 3-fold, overnight
  regulation of CAR expression by titrations of Valdecoxib: Little to no ligand dependent regulation of CAR
T cells, 10 μM ligand overnight, day 7 and 9
  CAR regulation compared between ligands: regulation was more evident at day 7
